Source: patent publication US11998602B2, “Methods for promoting myelination and for treating demyelinating diseases” (The Scripps Research Institute, priority 2018, dated 2024)

Key:
[1] = tested on: primary mouse cortical neurons co-cultured with OPCs; assay: In vitro OL maturation assay, MBP-colocalization with co-cultured axons; format: cell-based, rat
Method: In vitro OL maturation assay. Cortical and hippocampal tissue was dissected from C57BL/6 mice at embryonic day 14 and dissociated in 0.5% Trypsin with 100 U/mL DNase I diluted in HBSS (+/+) for 10 min at 37° C. Reaction was stopped by supplementing to a final concentration of 10% v/v FBS, 100 μg/mL Soybean Trypsin Inhibitor and 10 U/mL DNase I. Cells were resuspended in plating media consisting of equal volumes of FCS, HBSS (+/+), High-Glucose DMEM with L-glutamine, and F-12 with L-glutamine, then plated onto acid pre-washed German glass coverslips coated with 50 μg/mL Poly-D-Lysine and 20 μg/mL Laminin at a density of 50,000 cells/cm^2. Cells were allowed to attach for 2 hrs and then coverslips were rinsed with PBS before being transferred to a 24-well plate containing 0.5 mL growth media consisting of: Neurobasal medium, B27 supplement (Gibco), 0.5× Glutamax (Thermo), 5 μg/mL gentamycin and 5 μM glutamic acid. Half of the cell media was replaced after 3 DIV with supplemental growth media not containing glutamic acid^47. After 5 DIV, rat-derived cortical OPCs were added to the neuronal culture at a density of 5,000 cells/cm^2. Co-culture media used to resuspend and plate OPCs consisting of a 1:3 mixture of neuronal growth supplement (as above) and oligodendrocyte differentiation media, containing DMEM/F-12 (with L-glutamine), insulin-free N2 supplement, 1× Glutamax, 1×MEM non-essential amino acids, 1× β-mercaptoethanol, 2 ng/mL PDGF and 5 μg/mL gentamycin. All drugs and taurine co-treatment were added once to culture upon plating of OPCs at the following concentrations: 0.5 μM benztropine, 1.0 μM miconazole, each with or without 2 mM taurine. Cultures were maintained by replacing half of the media every three days, maintaining an equivalent concentration of taurine throughout in appropriate wells. […] Co-localization was quantified within regions of interest delineated as the periphery of individual oligodendrocytes. The co-localization index (adapted from a previously described method^48) was calculated as total proportion of co-localized 3D surface area between Tuj1 (neuron) and oligodendrocyte (MBP) over total Tuj1 (neuronal process) area enclosed within each oligodendrocyte process tree as the selected region of interest (ROI, see FIG. 3B″). Mean colocalization values for each condition were normalized to the DMSO condition mean analyzed statistically using Prism software (GraphPad, v7) for two-way ANOVA comparisons (Drug Treatment×Taurine Supplement) with Tukey post-tests for statistical significance. […]

OPCs = assay: Caspase-Glo 3/7 and Cell Titer Glo assays of apoptosis and survival during differentiation; format: cell-based, rat
Method: Detection of caspase 3/7. In poly-D-lysine-coated white 96-well plates (Greiner), cells were seeded at 5,000 cells per well. Taurine (20 mM) was added on days 0 or 3, alone and in combination with benztropine (0.5 μM), miconazole (2 μM), T3 (1 μM) or Staurosporine (1 μM) added on day 0. The Caspase-Glo 3/7 Assay (Promega) was utilized to quantify caspase-3/7 activity 6, 24 and 48 h after drug and taurine addition on day 0. Caspase-3/7 activity was also measured 24, 48 and 72 h (days 4, 5 and 6) after taurine addition on day 3.

`NCCS(=O)(=O)O` [taurine, 2-aminoethanesulfonic acid] was tested, and the “MBP-colocalization with axons, treatment alone vs. DMSO (Tukey post hoc)” value ([1]; 0.5 μM benztropine, 1.0 μM miconazole or 2 mM taurine alone, 14 days) was “no significant difference”, the “Index of MBP-colocalization with axons” value ([1]; 2 mM taurine in cultures treated with benztropine or miconazole, 14 days of neuron-OPC co-culture) was “significantly increase” and the “Apoptosis in OPCs treated with staurosporine” value (OPCs; 20 mM taurine with 1 μM staurosporine (apoptosis inducer)) was “significantly inhibit”. For the same compound, the “Caspase 3/7 activation” value (OPCs; 24 hours after taurine addition at day 0 or day 3, 1 μM T3, 0.5 μM benztropine or 2 μM miconazole) was “decrease” and the “Apoptosis or survival under basal differentiation conditions” value (OPCs; DMSO vehicle) was “not found to impact”.
